Values of other authors in US12611399B2, “Movement disorders” (Definium Therapeutics US, Inc., priority 2021, dated 2026).

What was measured:
Details in all cases: result in words
D1-3 receptors = test system: D1-3 receptors
5-HT transporter (SERT) = 5-HT transporter (SERT) (Homo sapiens, UniProt P31645)
[1] = test system: serotonin 5-HT1 receptors
5-HT2A receptor = 5-HT2A receptor (Homo sapiens, UniProt P28223)
D2 receptors = D2 receptors (Homo sapiens, UniProt P14416)
Chain of D2 receptors (P14416 whole entry): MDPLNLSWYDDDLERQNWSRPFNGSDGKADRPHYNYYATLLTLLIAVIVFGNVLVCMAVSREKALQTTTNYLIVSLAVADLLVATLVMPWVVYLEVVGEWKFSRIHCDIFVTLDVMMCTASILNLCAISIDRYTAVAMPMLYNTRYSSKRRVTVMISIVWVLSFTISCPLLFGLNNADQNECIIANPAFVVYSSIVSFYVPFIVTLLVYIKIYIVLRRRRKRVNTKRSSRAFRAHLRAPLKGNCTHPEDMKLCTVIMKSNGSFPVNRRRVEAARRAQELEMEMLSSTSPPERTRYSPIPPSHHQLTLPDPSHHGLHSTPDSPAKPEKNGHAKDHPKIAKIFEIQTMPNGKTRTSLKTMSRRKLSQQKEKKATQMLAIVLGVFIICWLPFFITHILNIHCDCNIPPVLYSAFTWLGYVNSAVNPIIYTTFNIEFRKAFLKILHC

Chain of 5-HT transporter (SERT) (P31645 whole entry, species assumed): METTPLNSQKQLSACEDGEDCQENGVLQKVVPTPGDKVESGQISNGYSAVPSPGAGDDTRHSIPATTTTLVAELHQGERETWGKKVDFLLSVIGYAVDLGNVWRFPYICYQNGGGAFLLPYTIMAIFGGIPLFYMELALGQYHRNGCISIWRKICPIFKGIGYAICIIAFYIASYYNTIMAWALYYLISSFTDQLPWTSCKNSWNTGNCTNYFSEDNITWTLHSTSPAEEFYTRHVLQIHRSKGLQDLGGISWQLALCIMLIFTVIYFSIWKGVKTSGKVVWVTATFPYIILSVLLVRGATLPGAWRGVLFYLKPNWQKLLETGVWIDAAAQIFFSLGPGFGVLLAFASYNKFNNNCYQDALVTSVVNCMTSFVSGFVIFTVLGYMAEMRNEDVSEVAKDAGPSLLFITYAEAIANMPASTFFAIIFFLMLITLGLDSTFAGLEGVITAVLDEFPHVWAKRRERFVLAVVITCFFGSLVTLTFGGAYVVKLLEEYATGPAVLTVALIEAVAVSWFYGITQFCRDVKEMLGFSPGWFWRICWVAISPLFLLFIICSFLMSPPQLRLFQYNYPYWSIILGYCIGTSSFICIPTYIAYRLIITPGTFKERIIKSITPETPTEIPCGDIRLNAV
Chain of 5-HT2A receptor (P28223 whole entry): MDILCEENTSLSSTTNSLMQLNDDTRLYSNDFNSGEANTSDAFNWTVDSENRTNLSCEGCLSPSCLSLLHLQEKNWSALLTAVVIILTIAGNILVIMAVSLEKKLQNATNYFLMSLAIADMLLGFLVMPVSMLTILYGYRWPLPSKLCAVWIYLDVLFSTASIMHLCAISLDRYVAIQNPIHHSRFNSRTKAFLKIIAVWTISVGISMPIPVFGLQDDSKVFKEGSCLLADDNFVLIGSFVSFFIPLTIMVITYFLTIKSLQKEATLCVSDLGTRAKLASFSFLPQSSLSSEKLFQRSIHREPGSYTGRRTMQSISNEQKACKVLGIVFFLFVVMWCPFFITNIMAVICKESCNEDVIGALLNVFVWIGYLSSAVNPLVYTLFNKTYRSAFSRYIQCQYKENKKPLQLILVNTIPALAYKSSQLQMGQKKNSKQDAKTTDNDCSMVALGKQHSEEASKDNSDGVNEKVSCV

Structure (SMILES) | stimulation of D1-3 receptors (D1-3 receptors) | interaction with the 5-HT transporter (SERT) (5-HT transporter (SERT)) | agonist potency at serotonin 5-HT1 receptors [1] | stimulation of the 5-HT2A receptor (5-HT2A receptor) | affinity for D2 receptors (D2 receptors)
CCN(CC)C(=O)[C@@H]1C=C2c3cccc4[nH]cc(c34)C[C@H]2N(C)C1 [LSD, lysergic acid diethylamide] | stimulates | does not interact | potent agoinsts | potently stimulates | 
COc1cc(CCN)cc(OC)c1OC [mescaline] |  |  | low potency |  | no affinity
CN(C)CCc1c[nH]c2cccc(O)c12 [psilocin] |  | inhibits | potent agoinsts |  | 
